Results reported in publication PMC12647599 (Nature Communications, 2025).

Key:
RtHYC3O = experiment: LC-MS/MS product assay, non-linear regression; assay type: biochemical, Rauvolfia tetraphylla; conditions: 20 mM Tris-HCl pH 7.5, 30 °C, 10 min; air O2; FAD enzyme
CrHYC3R (THAS3) = molecular target: T1, CrHYC3R (THAS3) (Catharanthus roseus, UniProt A0A1B1FHP1); experiment: LC-MS/MS relative activity, yeast lysate; assay type: biochemical; conditions: 1 mM NADPH, 20 mM Tris-HCl pH 7.5, 30 °C, 4 h
T1 sequence (A0A1B1FHP1 1-377): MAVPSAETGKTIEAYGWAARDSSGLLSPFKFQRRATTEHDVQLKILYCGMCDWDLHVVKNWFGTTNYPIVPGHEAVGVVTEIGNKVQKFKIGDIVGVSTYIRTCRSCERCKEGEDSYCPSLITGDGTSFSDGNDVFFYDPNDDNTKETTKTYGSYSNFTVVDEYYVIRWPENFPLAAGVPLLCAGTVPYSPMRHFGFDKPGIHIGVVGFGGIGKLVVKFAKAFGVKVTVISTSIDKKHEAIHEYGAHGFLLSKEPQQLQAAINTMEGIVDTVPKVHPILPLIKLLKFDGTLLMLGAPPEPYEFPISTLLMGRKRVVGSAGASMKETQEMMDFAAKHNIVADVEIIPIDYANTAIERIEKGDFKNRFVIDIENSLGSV

SMILES | Km (RtHYC3O) | LC-MS/MS relative activity, yeast lysate (CrHYC3R (THAS3))
COC(=O)[C@H]1[C@H]2C[C@H]3c4[nH]c5ccccc5c4CCN3C[C@H]2CC[C@@H]1O [rauwolscine] | 1.15 µM | 
COC(=O)[C@@H]1[C@H]2CC3=[N+](CCc4c3[nH]c3ccccc43)C[C@@H]2CC[C@@H]1O [3-dehydro-yohimbine] |  | efficiently reduced 3-dehydro intermediates of yohimbine and heteroyohimbine types
